In assay [1] the test system is Mycobacterium tuberculosis. Briefly: microbe, parasite or virus in culture.
Assay [2] concerns Mycobacterium tuberculosis.
Where [3] appears, read: H37RV, read-out: MIC (minimum inhibiting concentration), strain M.tb. H37 Rv.
[4] abbreviates: read-out: MIC (minimum inhibiting concentration), strain Clin. M.tb 1.
Setting [5] is: read-out: MIC (minimum inhibiting concentration), strain Clin. M.tb 15.

Values after ≈ are worked out from the molar mass of the structure shown. Where two headings read alike, the source gives them in different places.

`CC[C@@H](CO)NCCN[C@@H](CC)CO` [Ethambutol (EMB), Ethambutol]: the MIC was 0.5 µg/mL (≈ 2.45 µM) in assay [1] (setting [3]), 0.25 µg/mL (≈ 1.22 µM) in assay [1] (setting [4]) and 0.5 µg/mL (≈ 2.45 µM) in assay [1] (setting [5]).

In the case of `NNC(=O)c1ccncc1` [Isoniacid (INA), Isoniacid], the “MIC (minimum inhibiting concentration)” value in assay [2] (strain Clin. M.tb 1) amounted to 0.03 µg/mL (≈ 0.219 µM); in assay [2] (strain Clin. M.tb 15), 0.03 µg/mL (≈ 0.219 µM); in assay [2] (strain M.tb. H37 Rv), 0.06 µg/mL (≈ 0.438 µM).

As to `CO[C@H]1/C=C/O[C@@]2(C)Oc3c(C)c(O)c4c(O)c(c(/C=N/N5CCN(C)CC5)c(O)c4c3C2=O)NC(=O)/C(C)=C\C=C\[C@H](C)[C@H](O)[C@@H](C)[C@@H](O)[C@@H](C)[C@H](OC(C)=O)[C@@H]1C` [Rifampicin (RMP), Rifampicin], the MIC was 2 µg/mL (≈ 2.43 µM) in assay [1] (setting [3]), 1 µg/mL (≈ 1.22 µM) in assay [1] (setting [4]) and 2 µg/mL (≈ 2.43 µM) in assay [1] (setting [5]).

Values taken from patent publication US6617126B1, “Method for improving the growth and colorimetric detection of bacteria, yeasts, fungi or cocci” (priority 1996, dated 2003).
